The results in this text go back to patent US12371432B2, “Haloallylamine compounds and application thereof” (TransThera Sciences (Nanjing), Inc., priority 2019, dated 2025).

Counter-ions that a name gives are not always drawn.

The target in one experiment is T1, rhVAP-1 (Homo sapiens, UniProt Q16853).
T1 construct: purchased PeproTech
T1 sequence (Q16853 27-763 limits assumed): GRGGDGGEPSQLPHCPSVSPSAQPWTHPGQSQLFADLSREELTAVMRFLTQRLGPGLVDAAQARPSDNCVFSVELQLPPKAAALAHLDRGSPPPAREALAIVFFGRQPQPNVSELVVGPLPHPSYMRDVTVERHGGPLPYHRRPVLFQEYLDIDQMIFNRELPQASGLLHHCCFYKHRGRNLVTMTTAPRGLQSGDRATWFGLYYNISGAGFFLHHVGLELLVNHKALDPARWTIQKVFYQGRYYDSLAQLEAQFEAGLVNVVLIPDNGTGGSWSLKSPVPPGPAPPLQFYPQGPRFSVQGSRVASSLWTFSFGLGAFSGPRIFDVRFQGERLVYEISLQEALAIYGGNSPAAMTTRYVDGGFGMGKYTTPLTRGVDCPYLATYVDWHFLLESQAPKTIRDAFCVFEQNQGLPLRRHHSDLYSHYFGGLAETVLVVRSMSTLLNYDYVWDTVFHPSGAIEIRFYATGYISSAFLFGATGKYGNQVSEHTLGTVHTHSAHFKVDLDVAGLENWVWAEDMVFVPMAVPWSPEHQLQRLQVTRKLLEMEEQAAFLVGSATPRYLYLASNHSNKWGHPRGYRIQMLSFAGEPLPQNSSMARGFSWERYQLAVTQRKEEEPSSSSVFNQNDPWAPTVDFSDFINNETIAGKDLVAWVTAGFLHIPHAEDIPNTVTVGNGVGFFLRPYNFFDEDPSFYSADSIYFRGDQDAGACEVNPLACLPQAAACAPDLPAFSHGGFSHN
Put plainly: Inhibitory activity against rhVAP-1 enzyme (Biological Example 2). The format is biochemical. The following applies: Table 2; benzylamine substrate, Amplex Red/HRP. As for the experimental part: 1. Inhibitory Activity of Compounds Against rhVAP-1 Enzyme
(§1) (1) Instrument, Consumable and Reagent
Microplate reader (Perkin Elmer, Nivo 5S), black unclear-bottom 96-well plate (Corning) and rhVAP-1 (PeproTech)
(§2) (2) Preparation of Concentration Gradient Compound Solutions
An appropriate amount of the compound to be tested was taken, dissolved in DMSO to 10 mM and then stored. Before the study, an appropriate amount of mother liquor of the 10 mM compound to be tested was taken and gradiently diluted 3-fold with DMSO, 10 concentration gradients in total. Each concentration gradient was then diluted 100-fold with 0.1 M of PBS.
(§3) (3) Preparation of Enzyme Solutions
An appropriate amount of protein diluent was added into rhVAP-1 powder, obtaining 1 mg/mL of mother liquor for storage. Before the study, PBS was used to carry out dilution to obtain enzyme solutions of 4× concentrations.
(§4) (4) Preparation of Substrate Mixtures of 2× Concentrations
An appropriate amount of benzylamine was weighed and dissolved with PBS to obtain 200 mM of benzylamine solution. The benzylamine solution was added with 2 mM of Amplex Red mother liquor and 500 U/mL of HRP mother liquor and diluted with PBS to obtain substrate mixtures of 2× concentrations.
(§5) 10 μL compound solutions of different concentrations, 25 μL rhVAP-1 enzyme solutions of 4× concentrations and 15 μL of PBS were first added into a 96-well plate, shaken to be mixed uniformly and then incubated at 37° C. for 30 min. 50 μL substrate mixtures of 2× concentrations were then added into each well, and the microplate reader was immediately used to perform detection with 580 nm (20 nm) exciting light and 620 nm (10 nm) emission light for 5 min each time, 30 min in total. The inhibition rate was calculated according to the following formula: V (RFU/min)=(Ft (RFU)−F0 (RFU))/(time(min)) Inhibition rate (%)=100%−Vcmpd (RFU/min)/Vmax (RFU/min)×100%
(§6) V: fluorescence change rate; Ft: fluorescence reading at time point t; F0: initial fluorescence reading; Time: duration t; Vcmpd: fluorescence change rate of tested compound; Vmax: Max hole fluorescence change rate.
(§7) (6) Fitting of Dose-Response Curve
(§8) With the log value of concentration as the X axis and the percent inhibition rate as the Y axis, the log (inhibitor) vs. response-variable slope of analysis software GraphPad Prism 5 was used to fit a dose-response curve, thus obtaining the IC50 value of activity of each compound against the enzyme.

A further experiment deals with T2, rhAOC1 (Homo sapiens, UniProt P19801).
T2 construct: purchased R&D
T2 sequence (P19801 20-751): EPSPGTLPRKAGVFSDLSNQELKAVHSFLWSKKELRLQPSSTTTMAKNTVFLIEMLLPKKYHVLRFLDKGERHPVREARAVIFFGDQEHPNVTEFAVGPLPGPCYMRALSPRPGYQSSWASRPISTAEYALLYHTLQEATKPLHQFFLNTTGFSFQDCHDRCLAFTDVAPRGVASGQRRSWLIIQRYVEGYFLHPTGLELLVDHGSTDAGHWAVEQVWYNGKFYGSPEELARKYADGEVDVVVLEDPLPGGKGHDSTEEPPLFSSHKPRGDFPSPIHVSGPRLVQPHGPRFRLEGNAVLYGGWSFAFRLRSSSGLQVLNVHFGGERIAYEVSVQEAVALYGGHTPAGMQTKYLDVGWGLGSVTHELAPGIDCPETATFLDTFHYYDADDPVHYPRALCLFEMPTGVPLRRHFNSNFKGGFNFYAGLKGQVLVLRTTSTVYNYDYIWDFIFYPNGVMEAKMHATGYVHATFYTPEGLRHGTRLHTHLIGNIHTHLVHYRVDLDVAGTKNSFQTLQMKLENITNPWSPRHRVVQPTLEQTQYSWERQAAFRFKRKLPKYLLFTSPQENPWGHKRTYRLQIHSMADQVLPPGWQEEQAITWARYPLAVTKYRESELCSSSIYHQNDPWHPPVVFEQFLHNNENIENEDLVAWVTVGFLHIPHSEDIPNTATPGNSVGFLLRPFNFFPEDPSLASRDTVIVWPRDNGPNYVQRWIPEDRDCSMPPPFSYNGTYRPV
Put plainly: Selectivity against rhAOC1 enzyme (Biological Example 2). The format is biochemical. Particulars: Table 2; histamine substrate, Amplex Red/HRP. As for the experimental part: 2. Selectivity of Compounds Against rhAOC1 Enzyme
as §1
Microplate reader (Perkin Elmer, Nivo 5S), black unclear-bottom 96-well plate (Corning) and rhAOC1 (R&D)
as §2
An appropriate amount of the compound to be tested was taken, dissolved in DMSO to 10 mM and then stored. Before the study, an appropriate amount of mother liquor of the 10 mM compound to be tested was taken and gradiently diluted 3-fold with DMSO, 10 concentration gradients in total. Each concentration gradient was then diluted 10-fold with 0.1 M of PBS.
as §3
An appropriate amount of rhAOC1 mother liquor with a concentration of 0.441 mg/mL was taken and diluted with an appropriate amount of 50 mM HEPES buffer solution to obtain enzyme solutions of 4× concentrations.
as §4
An appropriate amount of histamine was weighed and dissolved with 50 mM of HEPES buffer solution to obtain 20 mM of histamine solution. The histamine solution was added with 2 mM of Amplex Red mother liquor and 500 U/mL of HRP mother liquor and diluted with 50 mM of HEPES buffer solution to obtain substrate mixtures of 2× concentrations.
as §5, with “rhAOC1” for “rhVAP-1”, “50 mM HEPES buffer solution” for “PBS”, “detect fluorescence intensity of each well” for “perform detection”
as §6, §7, §8

As for `CN1CCc2nn(C/C(=C/F)CN)cc2C1=O` [Compound A24 hydrochloride, (E)-2-(2-(aminomethyl)-3-fluoroallyl)-5-methyl-2,5,6,7-tetrahydro-4H-pyrazolo[4,3-c]pyridin-4-one], the values for the IC50 against rhVAP-1 and at rhAOC1 were 54 nM and 4720 nM, respectively.
The compound `NC/C(=C\F)Cn1cc(C(=O)Nc2ccc(Cl)cc2)cn1` [Compound B28, (E)-1-(2-aminomethyl-3-fluoroallyl)-N-4-chlorophenyl-1H-pyrazole-4-carboxamide] displayed a half-inhibitory concentration (IC50) at rhVAP-1 of 14 nM.
Turning to `CCN1Cc2cnn(C/C(=C/F)CN)c2C1=O` [Compound A31 hydrochloride, (E)-1-(2-(aminomethyl)-3-fluoroallyl)-5-ethyl-4,5-dihydropyrrolo[3,4-c]pyrazol-6(1H)-one], the 50% inhibitory concentration (IC50) against rhVAP-1 was determined as 53 nM; against rhAOC1, 8280 nM.
As to `NC/C(=C\F)Cn1cc(C(=O)NC2CC2)cn1` [Compound B4 hydrochloride, (E)-1-(2-(aminomethyl)-3-fluoroallyl)-N-cyclopropyl-1H-pyrazole-4-carboxamide], the IC50 against rhVAP-1 worked out at 51 nM; on rhAOC1, 5930 nM.
The like results for `COC1(C)CCN(C(=O)c2ccc3c(ccn3C/C(=C/F)CN)c2)CC1` [Compound C15 hydrochloride, (E)-(1-(2-(aminomethyl)-3-fluoroallyl)-1H-indol-5-yl)(4-methoxy-4-methylpiperidin-1-yl)methanone] were, in that order, 63 nM and 8380 nM.
The like results for `CN(C)C(=O)c1cnn(C/C(=C/F)CN)c1` [Compound B29, (E)-1-(2-(aminomethyl)-3-fluoroallyl)-N,N-dimethyl-1H-pyrazole-4-carboxamide] were, in that order, 70 nM and 10800 nM.
For `COCCN1CCc2nn(C/C(=C/F)CN)cc2C1=O` [Compound A47 hydrochloride, (E)-2-(2-(aminomethyl)-3-fluoroallyl)-5-(2-methoxyethyl)-2,5,6,7-tetrahydro-4H-pyrazolo[4,3-c]pyridin-4-one], the IC50 against rhVAP-1 stood at 20 nM.
Regarding `COC1CCN(C(=O)c2ccc3c(ccn3C/C(=C/F)CN)c2)CC1` [Compound C14 hydrochloride, (E)-(1-(2-(aminomethyl)-3-fluoroallyl)-1H-indol-5-yl)(4-methoxypiperidin-1-yl)methanone], the half-maximal inhibitory concentration (IC50) against rhVAP-1 worked out at 50 nM; on rhAOC1 it was 13100 nM.
As for `NC/C(=C\F)Cn1cc2c(n1)CCN(CC1CC1)C2=O` [Compound A48 hydrochloride, (E)-2-(2-(aminomethyl)-3-fluoroallyl)-5-(cyclopropylmethyl)-2,5,6,7-tetrahydro-4H-pyrazolo[4,3-c]pyridin-4-one], the IC50 on rhVAP-1 was determined as 12 nM.
Turning to `NC/C(=C\F)Cn1cc2c(n1)CCN(C1CCC1)C2=O` [Compound A9 hydrochloride, (E)-2-(2-(aminomethyl)-3-fluoroallyl)-5-cyclobutyl-2,5,6,7-tetrahydro-4H-pyrazolo[4,3-c]pyridin-4-one], the concentration for half-maximal inhibition (IC50) against rhVAP-1 is 37 nM; against rhAOC1 it was 911 nM.
As to `CC(C)(C)N1Cc2nn(C/C(=C/F)CN)cc2C1=O` [Compound A13, (E)-2-(2-(aminomethyl)-3-fluoroallyl)-5-(tert-butyl)-5,6-dihydropyrrolo[3,4-c]pyrazol-4(2H)-one], the values for the concentration for half-maximal inhibition (IC50) against rhVAP-1 and against rhAOC1 were 58 nM and 4180 nM, respectively.
The corresponding values for `CC(C)N1CCc2nn(C/C(=C/F)CN)cc2C1=O` [Compound A27 hydrochloride, (E)-2-(2-(aminomethyl)-3-fluoroallyl)-5-isopropyl-2,5,6,7-tetrahydro-4H-pyrazolo[4,3-c]pyridin-4-one] are 112 nM and 9650 nM.
`CCC(C)(C)N1CCc2nn(C/C(=C/F)CN)cc2C1=O` [Compound A49 hydrochloride, (E)-2-(2-(aminomethyl)-3-fluoroallyl)-5-(tert-pentyl)-2,5,6,7-tetrahydro-4H-pyrazolo[4,3-c]pyridin-4-one] yielded an IC50 on rhVAP-1 of 17 nM.
`NC/C(=C\F)Cn1ccc2cc(C(=O)N3CCC3)ccc21` [Compound C13 hydrochloride, (E)-(1-(2-(aminomethyl)-3-fluoroallyl)-1H-indol-5-yl)(azetidin-1-yl)methanone]: the IC50 against rhVAP-1 was determined as 67 nM; on rhAOC1 it was 1080 nM.
For the compound `CC(C)(C)NC(=O)c1ccn(C/C(=C/F)CN)c1` [Compound B12, (E)-1-(2-aminomethyl-3-fluoroallyl)-N-tert-butyl-1H-pyrrole-3-carboxamide], the values for the IC50 against rhVAP-1 and against rhAOC1 were 83 nM and 8580 nM, respectively.
The like results for `CC(C)(C)N1CCc2c(cnn2C/C(=C/F)CN)C1=O` [Compound A21, (E)-1-(2-(aminomethyl)-3-fluoroallyl)-5-(tert-butyl)-1,5,6,7-tetrahydro-4H-pyrazolo[4,3-c]pyridin-4-one] were, in that order, 96 nM and 4050 nM.
As to `NC/C(=C\F)Cn1cc2c(n1)CCNC2=O` [Compound A23 hydrochloride, (E)-2-(2-(aminomethyl)-3-fluoroallyl)-2,5,6,7-tetrahydro-4H-pyrazolo[4,3-c]pyridin-4-one], at rhVAP-1, the IC50 came to 39 nM.

In general, IC50 refers to the concentration at which inhibition is half-maximal. A low value points to greater potency in that assay.
